Experimental data published in US9593305B2, “Differentiation of pluripotent stem cells” (Janssen Biotech, Inc., priority 2008, dated 2017).

Tested on: H1 human embryonic stem cells
Test: Analog screening with GDF-8 and growth factor/agonist pool (Example 8, Tables 7 and 8)
Type: cell-based
Parameters: Cell Number, % of positive control / Sox17 Expression, % of positive control: tested at 2.5 µM
Conditions: for outcome in analog screening of hits from primary screening: 2.5 μM with GDF-8 and growth factor/agonist pool
Method in brief: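 H1 hESC clusters, washed free of growth factors, fed on alternate days over 4 days with DMEM:F12, 0.5% FCS, 2.5 μM compound, 25 ng/ml GDF-8 plus a 50 ng/ml growth-factor pool. Fixed cells immunostained for SOX17 and imaged; total SOX17 intensity normalised to positive control.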

[1] = EGF, FGF, PDGF-A, VEGF, PDGF-D, muscimol, GDF8
[2] = Plate 2, compound + EGF, FGF, PDGF-A, VEGF, PDGF-D, muscimol, GDF8
[3] = Plate 2, compound + EGF, FGF, PDGF-A, VEGF, PDGF-D, muscimol, GDF8, positive control Activin A/Wnt3a
[4] = Plate 1, compound + EGF, FGF, PDGF-A, VEGF, PDGF-D, muscimol, GDF8
[5] = Plate 1, compound + EGF, FGF, PDGF-A, VEGF, PDGF-D, muscimol, GDF8, positive control Activin A/Wnt3a
[6] = Table 8: hits with greater than 25% activity of the positive control, with GDF-8 and growth factors/agonists

SMILES | Cell Number, % of positive control [1] [%] | Cell Number, Average Total Cell Number [1] | Sox17 Expression, % of positive control [1] [%] | Sox17 Expression, Average Total Intensity [1] | Cell Number, Average Total Cell Number [2] | Sox17 Expression, Average Total Intensity [2] | Cell Number, % of positive control [3] | Sox17 Expression, % of positive control [3] | Cell Number, Average Total Cell Number [4] | Sox17 Expression, Average Total Intensity [4] | Cell Number, % of positive control [5] | Sox17 Expression, % of positive control [5] | Cell Number, % of positive control [6] | Sox17 Expression, % of positive control [6] | Sox17 Expression, Average Total Intensity [6] | outcome in analog screening of hits from primary screening
O=C1CCN2CCN(CC2)Cc2cccc(c2)Nc2ncnc(n2)-c2ccnc(c2)NCCCN1 [Compound 13, 1,8,10,12,17,19,23,27,33-Nonaazapentacyclo[25.2.2.1˜3,7˜0.1˜9.13˜1˜14.18˜]tetratriaconta-3(34), 4,6,9(33), 10,12,14(32), 15,17-nonaen-24-one] | 52.6 | 7045 | 28.8 | 7.22E+07 | 9123 | 1.13E+08 | 57.7 % of positive control | 39.7 % of positive control |  |  |  |  |  |  |  | 
CCN1CC(=O)NCCCc2cc(ccn2)-c2ncnc(n2)Nc2cc(Cl)cc(c2)C1 [Compound 14, 10-Chloro-14-ethyl-3,5,7,14,17,22,27-heptaazatetracyclo[19.3.1.1˜2,6˜1˜8,12˜]heptacosa-1(25), 2(27), 3,5,8(26), 9,11,21,23-nonaen-16-one] | 53.5 | 8464 | 29.1 | 8.33E+07 |  |  |  |  | 9344 | 1.23E+08 | 69.8 % of positive control | 49.0 % of positive control |  |  |  | 
CCN1CC(=O)NCCCc2cccc(c2)-c2ncnc(n2)Nc2cccc(c2)C1 [Compound 15, 14-Ethyl-3,5,7,14,17,27-hexaazatetracyclo[19.3.1.1˜2,6˜1-8.12˜]heptacosa-1(25), 2(27), 3,5,8(26), 9,11,21,23-nonaen-16-one] | 45.8 | 7234 | 27.8 | 7.95E+07 |  |  |  |  | 8448 | 8.64E+07 | 63.1 % of positive control | 34.5 % of positive control |  |  |  | 
O=C1NCCCc2cncc(c2)-c2ncnc(n2)Nc2cccc(c2)CN2CCCC1C2 (stereo not shown) [Compound 17, 3,5,7,14,20,26,31-Heptaazapentacyclo[22.3.1.1-2,6˜1˜8,12˜1˜14,18˜]hentriaconta-1(28), 2(31), 3,5,8(30), 9,11,24,26-nonaen-19-one] | 59.6 | 7988 | 45.0 | 1.13E+08 |  |  |  |  |  |  |  |  |  |  |  | 
O=C1NCCCc2cncc(c2)-c2ncnc(n2)Nc2cccc(c2)CN2CCC[C@@H]12 [Compound 18, (18S)-3,5,7,14,20,26,30-Heptaazapentacyclo[22.3.1.1˜2,6˜1˜8,12˜0.0˜14,18˜]triaconta-1(28), 2(30), 3,5,8(29), 9,11,24,26-nonaen-19-one] | 55.3 | 8742 | 35.4 | 1.01E+08 |  |  |  |  | 13037 | 1.63E+08 | 97.3 % of positive control | 65.2 % of positive control |  |  |  | 
CN1CCC(=O)NCCCc2cncc(c2)-c2ncnc(n2)Nc2cccc(c2)C1 [Compound 19, 14-Methyl-3,5,7,14,18,24,28-heptaazatetracyclo[20.3.1.1˜2,6˜0.1˜8,12˜]octacosa-1(26), 2(28), 3,5,8(27), 9,11,22,24-nonaen-17-one] | 58.2 | 7799 | 27.2 | 6.82E+07 | 8425 | 1.19E+08 | 53.3 % of positive control | 41.6 % of positive control |  |  |  |  |  |  |  | 
CN1CCCC(=O)NCCCc2cncc(c2)-c2ncnc(n2)Nc2cccc(c2)C1 [Compound 20, 14-Methyl-3,5,7,14,19,25,29-heptaazatetracyclo[21.3.1.1˜2,6˜0.1˜8,12˜]nonacosa-1(27), 2(29), 3,5,8(28), 9,11,23,25-nonaen-18-one] | 70.4 | 9434 | 59.1 | 1.48E+08 | 7346 | 8.90E+07 | 46.5 % of positive control | 31.2 % of positive control | 9434 | 1.48E+08 | 70.4 % of positive control | 59.1 % of positive control |  |  |  | 
CN1CCC(=O)NCCCNc2cccc(c2)-c2ncnc(n2)Nc2cccc(c2)C1 [Compound 21, 14-Methyl-3,5,7,14,18,22,29-heptaazatetracyclo[21.3.1.1˜2,6˜0.1˜8,12˜]nonacosa-1(27), 2(29), 3,5,8(28), 9,11,23,25-nonaen-17-one] |  |  |  |  |  |  |  |  | 12640 | 1.65E+08 | 94.4 % of positive control | 65.9 % of positive control | 94.4 % of positive control | 65.9 % of positive control | 1.65E+08 | 
O=C1CCN2CCN(CC2)Cc2cccc(c2)Nc2ncnc(n2)-c2cncc(c2)CCCN1 [Compound 23, 1,8,10,12,16,22,26,32-Octaazapentacyclo[24.2.2.1-3,7˜0.1˜9,13˜0.1˜14,18˜]tritriaconta-3(33), 4,6,9(32), 10,12,14(31), 15,17-nonaen-23-one] |  |  |  |  |  |  |  |  | 12165 | 2.15E+08 | 90.8 % of positive control | 86.0 % of positive control | 90.8 % of positive control | 86.0 % of positive control | 2.15E+08 | 
CCN1CC(=O)NCCCc2cc(ccc2F)-c2ncnc(n2)Nc2cc(Cl)cc(c2)C1 [Compound 25, 10-Chloro-14-ethyl-22-fluoro-3,5,7,14,17,27-hexaazatetracyclo[19.3.1.1˜2,6˜0.1˜8,12˜]heptacosa-1(25), 2(27), 3,5,8(26), 9,11,21,23-nonaen-16-one] |  |  |  |  | 6571 | 7.60E+07 | 41.6 % of positive control | 26.6 % of positive control |  |  |  |  | 41.6 % of positive control | 26.6 % of positive control | 7.60E+07 | 
O=C1CCN2CCN(CC2)Cc2cc(Cl)cc(c2)Nc2ncnc(n2)-c2cncc(c2)CCCN1 [Compound 34, 5-Chloro-1,8,10,12,16,22,26,32-octaazapentacyclo[24.2.2.1˜3.7˜0.1˜9,13˜0.1˜14.18˜]tritriaconta-3(33), 4,6,9(32), 10,12,14(31), 15,17-nonaen-23-one] |  |  |  |  | 8907 | 9.99E+07 | 56.3 % of positive control | 35.0 % of positive control |  |  |  |  | 56.3 % of positive control | 35.0 % of positive control | 9.99E+07 | repeated as hits
CCN1CC(=O)NCCCc2cncc(c2)-c2ncnc(n2)Nc2cc(Cl)cc(c2)C1 [Compound 35, 10-Chloro-14-ethyl-3,5,7,14,17,23,27-heptaazatetracyclo[19.3.1.1˜2,6˜0.1˜8,12]Theptacosa-1(25), 2(27), 3,5,8(26), 9,11,21,23-nonaen-16-one] |  |  |  |  | 10461 | 1.59E+08 | 66.2 % of positive control | 55.7 % of positive control |  |  |  |  | 66.2 % of positive control | 55.7 % of positive control | 1.59E+08 | repeated as hits
C=CCN1CC(=O)NCCCc2cncc(c2)-c2ncnc(n2)Nc2cccc(c2)C1 [Compound 40, 14-Prop-2-en-1-yl-3,5,7,14,17,23,27-heptaazatetracyclo[19.3.1.1˜2.6˜0.1˜8,12˜]heptacosa-1(25), 2(27), 3,5,8(26), 9,11,21,23-nonaen-16-one] |  |  |  |  | 4049 | 8.23E+07 | 25.6 % of positive control | 28.8 % of positive control |  |  |  |  | 25.6 % of positive control | 28.8 % of positive control | 8.23E+07 | 
